The values that follow come from patent US11512053B2, “Arginine methyltransferase inhibitors and uses thereof” (priority 2013, dated 2022).

pIC50: −log10 of the molar value. Where two headings read alike, the source gives them in different places.

The target of experiment [1] is full-length human PRMT1 isoform 1 (GST-tagged) (Homo sapiens, UniProt Q99873). Briefly: PRMT1 Biochemical Assay (3H-SAM Flashplate, peptide substrate). The procedure, abridged:
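GST-tagged full-length PRMT1 from baculovirus-infected cells, preincubated 30 min at room temperature with compound in 20 mM Bicine pH 7.6, TCEP, BSG, Tween 20. Reaction started with 3H-SAM plus biotinylated peptide, stopped with 300 uM unlabelled SAM. Streptavidin Flashplate capture and scintillation counting; % inhibition curve-fitted for IC50.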

In experiment [2] the test system is mono-methyl arginine in RKO cells. As to the kind of experiment: RKO Methylation Assay, In Cell Western (ICW) for detection of mono-methyl arginine and DNA content. It is filed as cell-based. The note with it: for EC30: Homo sapiens, RKO, 72 h. The procedure, abridged:
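RKO cells were treated with compound for 72 hours at 37 °C, methanol-fixed and stained overnight at 4 °C with anti-mono-methyl arginine (1:200), with DRAQ5 for DNA. Odyssey 800/700 nm intensity ratio was normalized to DMSO and 20 μM reference-compound controls. EC30 from triplicate nine-point curves.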

Setting [3] is: single experiment or average of multiple experiments.
The mark [4] stands for this setting: RKO cells, 72 hours incubation, mono-methyl arginine signal normalised to DNA content, single experiment or average of multiple experiments, read-out: In Cell Western EC30.
[5] abbreviates: RKO cells, 72 hours compound incubation, mono-methyl arginine signal normalised to DNA content (DRAQ5), percent activation vs 20 μM reference compound.
The mark [6] stands for this setting: read-out: In Cell Western EC30, RKO cells, 72 hours compound incubation, mono-methyl arginine signal normalised to DNA content (DRAQ5), percent activation vs 20 μM reference compound.
The mark [7] stands for this setting: read-out: In Cell Western EC30, RKO cells, 72 hours incubation, mono-methyl arginine signal normalised to DNA content, single experiment or average of multiple experiments.

Sequence of full-length human PRMT1 isoform 1 (GST-tagged) (Q99873 with tags, fused parts or gaps): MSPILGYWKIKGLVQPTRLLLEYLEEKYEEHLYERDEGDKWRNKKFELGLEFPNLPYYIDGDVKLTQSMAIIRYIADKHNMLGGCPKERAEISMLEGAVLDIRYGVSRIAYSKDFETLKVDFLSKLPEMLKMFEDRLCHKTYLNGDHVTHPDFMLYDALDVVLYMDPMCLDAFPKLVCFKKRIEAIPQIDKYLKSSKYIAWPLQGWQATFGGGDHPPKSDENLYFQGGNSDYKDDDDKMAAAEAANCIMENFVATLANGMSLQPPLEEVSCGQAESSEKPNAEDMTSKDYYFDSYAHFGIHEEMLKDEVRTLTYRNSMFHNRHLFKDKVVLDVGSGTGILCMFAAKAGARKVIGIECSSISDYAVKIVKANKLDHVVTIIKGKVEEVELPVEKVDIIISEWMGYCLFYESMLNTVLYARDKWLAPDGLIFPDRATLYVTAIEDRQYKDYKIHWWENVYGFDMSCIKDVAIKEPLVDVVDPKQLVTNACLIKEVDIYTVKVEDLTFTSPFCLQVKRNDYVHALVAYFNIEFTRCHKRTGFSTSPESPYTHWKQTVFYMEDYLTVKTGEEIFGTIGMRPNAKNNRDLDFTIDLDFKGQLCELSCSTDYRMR

For the molecule `CNCCN(C)Cc1c[nH]nc1C#Cc1cccc(OC)c1` [Compound 1], in experiment [1] (setting [3]), the pIC50 was 8.00.
Molecule `CNCCN(C)Cc1c[nH]nc1C#Cc1ccc(C(C)(C)C)cc1` [Compound 2] showed a pIC50 in experiment [1] (setting [3]) of 8.00.
Same read-out and setting: the figure for `CNCCN(C)Cc1c[nH]nc1C#Cc1ccc(F)cc1` [Compound 4] is 7.70; for `CNCCN(C)Cc1c[nH]nc1/C=C/c1ccc(-c2ccccc2)cc1` [Compound 5] it is 8.00; for `CNCCN(C)Cc1c[nH]nc1/C=C/c1ccc(C(F)(F)F)cc1` [Compound 6] it is 7.40.
Same read-out and setting: under `CNCCN(C)Cc1c[nH]nc1/C=C/c1ccc(OC)cc1` [Compound 7] stands 8.00; under `Cc1ccc(/C=C/c2n[nH]cc2CN(C)CCN)cc1` [Compound 8], 7.70.
`CN(CCN)Cc1c[nH]nc1C1=CCOCC1` [Compound 10] had a negative-log IC50 (pIC50) in experiment [1] (setting [3]) of 6.41. Moreover, the EC30 in experiment [2] (setting [4]) is greater than 20000 nM. Also, the “In Cell Western EC30” value in experiment [2] (setting [5]) is reported as “C (“C” indicates an EC30 > 12.01 μM)”.
With `COc1cc(/C=C/c2n[nH]cc2CN(C)CCN)cc(OC)c1` [Compound 11], the pIC50 in experiment [1] (setting [3]) is 8.00.
`CN(CCN)Cc1c[nH]nc1C1CC1` [Compound 12]: the pIC50 in experiment [1] (setting [3]) is 5.80.
Molecule `CN(CCN)Cc1c[nH]nc1/C=C/c1ccc(F)cc1F` [Compound 13] gave a pIC50 in experiment [1] (setting [3]) of 8.00.
In experiment [1] (setting [3]), `CN(CCN)Cc1c[nH]nc1/C=C/c1cc(C(F)(F)F)cc(C(F)(F)F)c1` [Compound 14] showed a pIC50 of 7.05.
On the same count and under the same terms, the figure for `CN(CCN)Cc1c[nH]nc1/C=C/c1cc(F)cc(F)c1` [Compound 15] is 7.30; for `CN(CCN)Cc1c[nH]nc1/C=C/c1cccc(C(F)(F)F)c1` [Compound 16] it is 7.70.
Same read-out and setting: under `COc1cccc(/C=C/c2n[nH]cc2CN(C)CCN)c1` [Compound 17] stands 8.00.
Still for that read-out and setting: the figure for `COC/C=C/c1n[nH]cc1CN(C)CCN` [Compound 19] is 6.72.
In turn, `CN(CCN)Cc1c[nH]nc1/C=C/c1cccc(F)c1` [Compound 20] gave a pIC50 in experiment [1] (setting [3]) of 7.70.
In experiment [1] (setting [3]), `CC(C)c1n[nH]cc1CN(C)CCN` [Compound 21] showed a pIC50 of 5.83. In addition, the EC30 in experiment [2] (setting [4]) was greater than 20000 nM. For the same molecule, the “In Cell Western EC30” value in experiment [2] (setting [5]) was “C (“C” indicates an EC30 > 12.01 μM)”.
In turn, `CN(CCN)Cc1c[nH]nc1C1CCCCC1` [Compound 22] had a pIC50 in experiment [1] (setting [3]) of 8.00. Moreover, in experiment [2] (setting [4]), the EC30 is 1240 nM. Moreover, in experiment [2] (setting [5]), the “In Cell Western EC30” value is listed as “A (“A” indicates an EC30 ≤ 3.00 μM)”.
The corresponding values for `CN(CCN)Cc1c[nH]nc1CCc1ccc(F)cc1` [Compound 23, N^1-((3-(4-fluorophenethyl)-1H-pyrazol-4-yl)methyl)-N^1-methylethane-1,2-diamine] are 8.00, 1610 nM and “A (“A” indicates an EC30 ≤ 3.00 μM)”.
`CN(CCN)Cc1c[nH]nc1/C=C/Cc1ccccc1` [Compound 24] showed a pIC50 in experiment [1] (setting [3]) of 7.70. For the same molecule, the EC30 in experiment [2] (setting [4]) amounted to 2400 nM. The “In Cell Western EC30” value in experiment [2] (setting [5]) is listed as “A (“A” indicates an EC30 ≤ 3.00 μM)”.
The matching figures for `CN(CCN)Cc1c[nH]nc1C1=CCCC1` [Compound 25]: 6.60, 11800 nM and “B (“B” indicates an EC30 of 3.01-12.00 μM)”.
For the molecule `CN(CCN)Cc1c[nH]nc1C1CCC1` [Compound 26], the EC30 in experiment [2] (setting [4]) is greater than 20000 nM. Besides, in experiment [2] (setting [5]), the “In Cell Western EC30” value is listed as “C (“C” indicates an EC30 > 12.01 μM)”.
The corresponding values for `CN(CCN)Cc1c[nH]nc1C(C)(C)C` [Compound 27] are greater than 20000 nM and “C (“C” indicates an EC30 > 12.01 μM)”.
In experiment [1] (setting [3]), `CC(C)Cc1n[nH]cc1CN(C)CCN` [Compound 28, N^1-((3-iso-butyl-1H-pyrazol-4-yl)methyl)-N^1-methylethane-1,2-diamine] had a pIC50 of 6.74. Also, the EC30 in experiment [2] (RKO cells, 72 hours compound incubation, mono-methyl arginine signal normalised to DNA content (DRAQ5), percent activation vs 20 μM reference compound, read-out: In Cell Western EC30) is 3010 to 12000 nM; in experiment [2] (setting [4]), 11100 nM.
`CCCc1n[nH]cc1CN(C)CCN` [Compound 29]: the EC30 in experiment [2] (setting [4]) was greater than 20000 nM. For the same molecule, the “In Cell Western EC30” value in experiment [2] (setting [5]) is “C (“C” indicates an EC30 > 12.01 μM)”.
The matching figures for `Cc1n[nH]cc1CN(C)CCN` [Compound 30]: greater than 20000 nM and “C (“C” indicates an EC30 > 12.01 μM)”.
`CN(CCN)Cc1c[nH]nc1C1CCCC1` [Compound 31] had a pIC50 in experiment [1] (setting [3]) of 6.96. Besides, the EC30 in experiment [2] (setting [4]) is greater than 20000 nM. The “In Cell Western EC30” value in experiment [2] (setting [5]) is given as “C (“C” indicates an EC30 > 12.01 μM)”.
Regarding `CNCCN(C)Cc1c[nH]nc1C1CCN(C(=O)Cc2ccccc2)CC1` [Compound 32], the pIC50 in experiment [1] (setting [3]) is 7.70. In addition, the EC30 in experiment [2] (setting [4]) came to 2350 nM. The “In Cell Western EC30” value in experiment [2] (setting [5]) is “A (“A” indicates an EC30 ≤ 3.00 μM)”.
The matching figures for `CN(CCN)Cc1n[nH]cc1C1CCCCC1` [Compound 33]: 7.70, 3330 nM and “B (“B” indicates an EC30 of 3.01-12.00 μM)”.
The matching figures for `CNCCN(C)Cc1c[nH]nc1C1CCN(C(=O)C(C)C)CC1` [Compound 34]: 7.70, 1150 nM and “A (“A” indicates an EC30 ≤ 3.00 μM)”.
For `CC1CCC(c2c[nH]nc2CN(C)CCN)CC1` (stereo not drawn) [Compound 35], in experiment [2] (setting [4]), the EC30 came to 730 nM. Further, the “In Cell Western EC30” value in experiment [2] (setting [5]) was “A (“A” indicates an EC30 ≤ 3.00 μM)”.
Turning to `CN(CCN)Cc1n[nH]cc1C1CCC(C)(C)CC1` [Compound 36], the EC30 in experiment [2] (setting [4]) turned out to be 630 nM. For the same molecule, the “In Cell Western EC30” value in experiment [2] (setting [5]) is on record as “A (“A” indicates an EC30 ≤ 3.00 μM)”.
Turning to `CN(CCN)Cc1c[nH]nc1C1CCC(C)(C)CC1` [Compound 38, N^1-((3-(4,4-dimethylcyclohexyl)-1H-pyrazol-4-yl)methyl)-N^1-methylethane-1,2-diamine], the EC30 in experiment [2] (setting [4]) was 130 nM. In experiment [2] (setting [5]), the “In Cell Western EC30” value is listed as “A (“A” indicates an EC30 ≤ 3.00 μM)”.
Consider `CNCCN(C)Cc1c[nH]nc1C1CCN(CC(C)C)CC1` [Compound 39, N^1-((3-(1-isobutylpiperidin-4-yl)-1H-pyrazol-4-yl)methyl)-N^1,N^2-dimethylethane-1,2-diamine], for which the EC30 in experiment [2] (setting [4]) is 500 nM. The “In Cell Western EC30” value in experiment [2] (setting [5]) was “A (“A” indicates an EC30 ≤ 3.00 μM)”.
For the molecule `CNCCN(C)Cc1c[nH]nc1C1CCNCC1` [Compound 42], the EC30 in experiment [2] (setting [4]) is greater than 20000 nM. For the same molecule, the “In Cell Western EC30” value in experiment [2] (setting [5]) is “C (“C” indicates an EC30 > 12.01 μM)”.
The corresponding values for `CN(CCN)Cc1n[nH]cc1C1CCC(N2CCOCC2)CC1` (stereo not drawn) [Compound 44, N^1-methyl-N^1-((4-(4-morpholinocyclohexyl)-1H-pyrazol-3-yl)methyl)ethane-1,2-diamine] are 4570 nM and “B (“B” indicates an EC30 of 3.01-12.00 μM)”.
Consider `CNCCN(C)Cc1c[nH]nc1C1CCC(C)(C)C(C(=O)NCCCOC)C1` (stereo not drawn) [Compound 93], for which the pIC50 in experiment [1] was greater than 7.00; in experiment [1] (setting [3]), 7.50.
For `CNCCN(C)Cc1c[nH]nc1[C@H]1CC[C@@]2(CC1)CC(C)(C)CO2` [Compound 133, Methyl[2-(methylamino)ethyl]([3-[(5s,8s)-3,3-dimethyl-1-oxaspiro[4.5]decan-8-yl]-1H-pyrazol-4-yl]methyl)amine], the EC30 is less than 3000 nM in experiment [2] (setting [6]) and 43.8 nM in experiment [2] (setting [7]).
Turning to `CNCCN(C)Cc1c[nH]nc1[C@H]1CC[C@]2(CC1)CC(C)(C)CO2` [Compound 134, methyl[2-(methylamino)ethyl]([3-[(5r,8r)-3,3-dimethyl-1-oxaspiro[4.5]decan-8-yl]-1H-pyrazol-4-yl]methyl)amine], the EC30 in experiment [2] (setting [6]) is less than 3000 nM; in experiment [2] (setting [7]), 33.2 nM.
Turning to `CNCCN(C)Cc1c[nH]nc1[C@H]1CCC(C)(C)[C@@H](C(=O)NCCOC)C1` [Compound 268], the pIC50 in experiment [1] was greater than 7.00; in experiment [1] (setting [3]), 7.16.
On to `CNCCN(C)Cc1c[nH]nc1[C@@H]1CCC(C)(C)[C@@H](C(=O)NCCOC)C1` [Compound 269], for which the values for the pIC50 in experiment [1] and in experiment [1] (setting [3]) were greater than 7.00 and 7.29, respectively.
Consider `CNCCN(C)Cc1c[nH]nc1[C@H]1CCC(C)(C)[C@@H](C(=O)NCCCOC)C1` [Compound 270], for which the pIC50 was greater than 7.00 in experiment [1] and 7.20 in experiment [1] (setting [3]).
The matching figures for `CNCCN(C)Cc1c[nH]nc1[C@@H]1CCC(C)(C)[C@@H](C(=O)NCCCOC)C1` [Compound 271, (1S,5R)—N-(3-methoxypropyl)-2,2-dimethyl-5-[4-({methyl[2-(methylamino)ethyl]amino}methyl)-1H-pyrazol-3-yl]cyclohexane-1-carboxamide]: greater than 7.00 and 7.43.
`CNCCN(C)Cc1c[nH]nc1C1CCC(C)(C)[C@H](OCCCOC)C1` (stereo partly drawn) [Compound 272]: the pIC50 in experiment [1] was greater than 7.00; in experiment [1] (setting [3]), 7.91.
The matching figures for `CNCCN(C)Cc1c[nH]nc1C1CCC(C)(C)[C@H](OCC2CCOCC2)C1` (stereo partly drawn) [Compound 273, ({3-[(3R)-4,4-dimethyl-3-(oxan-4-ylmethoxy)cyclohexyl]-1H-pyrazol-4-yl}methyl)(methyl)[2-(methylamino)ethyl]amine]: greater than 7.00 and 7.94.

As usually defined, the pIC50 is the negative decadic logarithm of the IC50, by convention in mol/L. Read a high pIC50 as a small IC50. For orientation: EC30 means the concentration needed for an effect of 30%.
